# US6780596B2, “Methods for determining the activity of complex mixtures” (Ashni Naturaceuticals, Inc., priority 1998, dated 2004)
# Test system: LNCaP prostate cells
# Experiment: Phosphotyrosyl protein expression in LNCaP prostate cells (SDS-PAGE, anti-phosphotyrosine immunoblot)
# Format: cell-based, human
# Details: for number of phosphotyrosylprotein bands decreased in staining intensity / affected: of sixteen bands in dividing LNCaP cells, 15 to 90 kDa
# Description: Chemicals: Anti-phosphotyrosine antibodies may be purchased from Upstate Biotechnology (Lake Placid, N.Y.). Saw palmetto (Serenoa repens) extract may be obtained from Ashland Nutritional (Irvine Calif.). All other chemicals may be purchased from Sigma Chemical Company (St. Louis, Mo.) and are the highest purity commercially available.
# Human Prostate Cell Line: The LNCaP prostate cell line (CRL-1740) is useful as a model for prostate hyperplasia and may be obtained from the American Type Culture Collection (Bethesda, Md.). LNCaP cells were originally isolated from a person and are characteristic of prostatic carcinoma. They are androgen and estrogen responsive, produce prostate specific antigen (PSA), and prostatic acid phosphatase in culture.
# Cell Plating: LNCaP cells may be propagated as monolayers according to the instructions of the supplier. For experiments, cells may be plated at a density of 1×10^5 cells per mL in 100 mm plates, 20 mL per plate, 3 plates per treatment. […]
# On day three, a subset of control LNCaP cells is synchronized to Go by reducing the serum concentration of the medium to 0.5%. These cells are termed quiescent, resting or unstimulated LNCaP cells.
# After a four-day incubation period with the test materials, the test LNCaP cells may be collected by washing plates three times with ice-cold phosphate-buffered saline, pH 7.4 (PBS) over ice, removed by scraping, pelleted by centrifugation at 4° C. The cell pellet may be lysed for 20 min. in 20 mM Tris buffer (pH 8.0) with 137 mM NaCl, 10% glycerol, 1% Nonidet P-40, 1 mM phenylmethylsulfonyl fluoride, 0.15 units/mL aprotonin, and 1 mM sodium orthovanadate while on wet ice. Cell lysates are collected after centrifugation at 30,000 rpm at 4° C. for 10 minutes to separate cellular debris from lysates.
# Gel Electrophoresis: Sodium dodecyl sulfate polyacrylamide gel electrophoresis (PAGE) is performed using 10% polyacrylamide gels, as described by Laemmli, U.K. and Favre, M., 80 Journal of Molecular Biology 575-99 (1973), with the modification that the cell lysates (100 μg protein/lane) are heated at 100° C. for three minutes.
# Immunoblotting: The immunoblotting is performed as described by Towbin et al., 76 Proc. Natl. Acad. Sci. USA 4350 (1979), however, a Milliblot SDE electroblot apparatus (Millipore, Bedford, Mass.), is used to transfer proteins from the polyacrylamide gels to an IMMOBILON® membrane filter. Complete transfers are accomplished in 25-30 minutes at 500 mA. Membranes used for blotting are blocked by incubating in TBS (Tris buffered saline, 50 mM Tris, 150 mM NaCl, pH 7.5) containing 5% nonfat dry milk for 30 minutes at room temperature. Phosphotyrosylproteins are visualized by incubation of the blots with the anti-phosphotyrosine antibody in TBST (0.05% Tween 20 in TBS) for two hours and then a second incubation at room temperature with alkaline phosphatase-conjugated secondary antibody diluted 1:1000 in TBST for two hours. The enzymatic reaction is developed for 15 minutes. Molecular weights of immuno-stained proteins are estimated by adding molecular weight standards to reference lanes and staining the membrane filters with amido black 10B.
# Blots are translated into TIFF-formatted files with a Microtech 600GS scanner and quantified using Scan Analysis (BIOSOFT™, Cambridge, UK). Summary scans are then printed and peak heights are measured directly from figure. One density unit (Du) is defined as one mm of the resulting peak height.
# Protein Determination: Spectrophotometric determination of protein concentration is determined with bicinchoninic acid as reported by Smith, et al. Measurement of protein using bicinchoninic acid. 150 ANAL. BIOCHEM. 76-85 (1985).
# Statistical Analysis: Dose responses are defined as three or more consecutive doses resulting in a consistent, reproducible appearance or disappearance of a phosphotyrosylprotein in the immunoblot. […]
smiles,measurement,setting,value
CC[C@H](CC[C@@H](C)[C@H]1CC[C@H]2[C@@H]3CC=C4C[C@@H](O)CC[C@]4(C)[C@H]3CC[C@]12C)C(C)C [beta-sitosterol],phosphotyrosylproteins at 45 and 50 kDa,50 μg beta-sitosterol/mL,faint bands
same,concentration at which the 36 and 40 kDa phosphotyrosylproteins disappear entirely,"beta-sitosterol 5, 10 or 50 μg/mL",10 µg/mL
same,number of phosphotyrosylprotein bands decreased in staining intensity / affected,,four
"CC(C)(C)NC(=O)[C@H]1CC[C@H]2[C@@H]3CC[C@H]4NC(=O)C=C[C@]4(C)[C@H]3CC[C@]12C [finasteride, Finasteride]",40 kDa band,0.05 μg/mL finasteride,barely visible
same,tyrosylphosphorylation of the 28 and 36 kDa proteins,0.05 μg/mL finasteride,completely eliminated
same,number of phosphotyrosylprotein bands decreased in staining intensity / affected,,three
CC(C)=CCC/C(C)=C/C=C/C(C)=C/C=C/C(C)=C/C=C/C=C(C)/C=C/C=C(C)/C=C/C=C(\C)CCC=C(C)C [lycopene],"concentration at which the 15, 17 and 20 kDa phosphotyrosylproteins disappear entirely",lowest concentration tested,100 ng/mL
same,number of phosphotyrosylprotein bands decreased in staining intensity / affected,,fourteen
C/C1=C2/[N-][C@H]([C@H](CC(N)=O)[C@@]2(C)CCC(=O)NC[C@@H](C)OP(=O)([O-])O[C@H]2[C@@H](O)[C@@H](n3cnc4cc(C)c(C)cc43)O[C@@H]2CO)[C@]2(C)N=C(/C(C)=C3N=C(/C=C4N=C1[C@@H](CCC(N)=O)C\4(C)C)[C@@H](CCC(N)=O)[C@]\3(C)CC(N)=O)[C@@H](CCC(N)=O)[C@]2(C)CC(N)=O.[CH3-].[Co] [methylcobalamine],phosphotyrosylproteins at 40 and 50 kDa,500 μg methylcobalamine/mL,faint bands
same,effective concentration,effect on phosphotyrosylprotein expression,approximately 500 μg/mL
same,concentration at which the 45 kDa phosphotyrosylprotein disappears entirely,"methylcobalamine 5, 50 or 500 μg/mL",500 µg/mL
same,number of phosphotyrosylprotein bands decreased in staining intensity / affected,,three
C[C@H]1[C@H](C)CC[C@]2(C(=O)O)CC[C@]3(C)C(=CC[C@@H]4[C@@]5(C)CC[C@H](O)C(C)(C)[C@@H]5CC[C@]43C)[C@H]12 [ursolic acid],"concentration at which the phosphotyrosylproteins at 28, 30, 50 and 60 kDa are no longer visible",highest concentration tested,5 µg/mL
same,"concentration at which the 17, 20, 28 and 34 kDa phosphotyrosylproteins disappear entirely",lowest concentration tested,0.5 µg/mL
same,number of phosphotyrosylprotein bands decreased in staining intensity / affected,,ten
